We go through one compound from PubChem BioAssay AID1224911.

Molecules are shown by their SMILES.

The target of the assay is Serine/threonine-protein kinase PAK 2 (Homo sapiens) (UniProt Q13177). Briefly: PubChem AID 1224911. To be noted: Caliper in vitro kinase assay, phosphorylated PAK2.
Sequence of Serine/threonine-protein kinase PAK 2 (Homo sapiens) (Q13177 whole entry, looked up): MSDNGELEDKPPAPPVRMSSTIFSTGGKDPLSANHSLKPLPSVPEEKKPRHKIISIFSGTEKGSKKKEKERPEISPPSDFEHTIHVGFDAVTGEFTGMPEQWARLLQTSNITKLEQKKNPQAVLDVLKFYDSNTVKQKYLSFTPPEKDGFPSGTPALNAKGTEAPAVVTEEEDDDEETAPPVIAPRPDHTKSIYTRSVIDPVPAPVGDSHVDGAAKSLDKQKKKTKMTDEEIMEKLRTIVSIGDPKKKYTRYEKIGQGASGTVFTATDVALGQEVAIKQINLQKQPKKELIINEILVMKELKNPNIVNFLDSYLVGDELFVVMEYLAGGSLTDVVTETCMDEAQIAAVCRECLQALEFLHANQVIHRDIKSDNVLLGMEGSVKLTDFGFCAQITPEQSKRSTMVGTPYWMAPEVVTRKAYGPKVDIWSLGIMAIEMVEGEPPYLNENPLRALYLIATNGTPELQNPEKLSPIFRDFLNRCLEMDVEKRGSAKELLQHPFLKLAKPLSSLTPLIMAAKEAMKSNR

Consider `CC(C)NC(=O)N1CC[C@H](N=C2Nc3cc(F)ccc3N(CC(F)F)c3ccc(Cl)cc32)C1`, for which the IC50 was 720 nM.

For orientation: IC50 means the concentration needed to halve the response being measured.
